Tested on: cells
Assay: Cell compliance with the spray formulations
Type: cell-based
Protocol: A study was undertaken to determine cell compliance with the spray formulations over a 48 hour testing period. […] Dose-response was linear (R^2=0.96 and 0.97 for gellan and lambda-carrageenan, respectively), with reduced cell death as the systems became increasing more dilute.

Substance: gellan
- Reduction in the number of living cells: 2 fold
